{"source": "paper PMC4232510", "about": "“Identification of Functionally Important Residues of the Rat P2X4 Receptor by Alanine Scanning Mutagenesis of the Dorsal Fin and Left Flipper Domains” (PLoS ONE, 2014)", "assay_in_all_cases": "whole-cell patch clamp, HEK293T cells expressing mutant", "assay_type_in_all_cases": "cell-based", "conditions_in_all_cases": "for relative responsiveness: 100 µM agonist 2 s, relative to ATP (100%)", "key": {"[1]": {"target": "T1, rP2X4R L214A mutant (Rattus norvegicus, UniProt P51577, L214A)", "T1 construct": "expressed in transfected cells; host or cells: HEK293T", "T1 sequence (P51577 1-388 L214A)": "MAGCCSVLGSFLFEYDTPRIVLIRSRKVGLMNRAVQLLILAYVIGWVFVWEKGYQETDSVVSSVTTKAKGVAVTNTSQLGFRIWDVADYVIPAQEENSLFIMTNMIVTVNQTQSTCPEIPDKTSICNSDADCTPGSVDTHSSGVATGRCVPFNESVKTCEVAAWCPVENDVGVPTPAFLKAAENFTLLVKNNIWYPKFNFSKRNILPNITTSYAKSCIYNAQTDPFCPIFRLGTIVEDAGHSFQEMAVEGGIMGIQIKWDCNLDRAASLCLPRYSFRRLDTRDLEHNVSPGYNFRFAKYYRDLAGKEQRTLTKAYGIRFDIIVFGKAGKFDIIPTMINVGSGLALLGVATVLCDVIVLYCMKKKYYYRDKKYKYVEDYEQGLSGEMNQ", "method": "(§1) To express the recombinant channels, we used human embryonic kidney (HEK) 293T cells (American Type Culture Collection, Rockville, MD, USA) grown in Dulbecco modified Eagle’s medium (Thermo Fisher Scientific, Waltham, MA) supplemented with 10% fetal bovine serum (Sigma-Aldrich, St Louis, MO), 50 U/ml penicillin and 50 µg/ml streptomycin (both Thermo Fisher Scientific, Waltham, MA) in a humidified 5% CO2 and 95% air at 37°C. Cells were cultured in 75 cm^2 plastic culture flasks (NUNC, Rochester, NY) for 36–72 hours until reaching 80–95% confluence. Before the day of transfection, the cells were plated on 35 mm culture dishes (Sarstedt, Newton, NC) and incubated at 37°C for at least 24 h. Transfection was done using 2 µg of either WT or mutant receptor DNA with 2 µl of JetPrime reagent in 2 ml of Dulbecco modified Eagle’s medium, according to manufacturer’s instructions (PolyPlus-transfection, Illkirch, France). Transfected cells were identified by the fluorescence signal of EGFP using the Olympus IX71 inverted research microscope with fluorescence illuminators (Model IX71; Olympus, Melville, NY).\n(§2) cDNAs encoding the sequences of the rP2X4 and mutated subunits were subcloned into the pIRES2-EGFP vector (Clontech, Mountain View, CA, USA). To generate the mutants, oligonucleotides (synthesized and provided by VBC-Genomics, Vienna, Austria or Sigma Aldrich) containing specific mutagenesis mismatches were introduced into the rP2X4/pIRES2-EGFP template using PfU Ultra DNA polymerase (Thermo Fisher Scientific). A High-Speed Plasmid Mini Kit (Geneaid, Taipei City, Taiwan) was used to isolate the plasmids for transfection. Dye terminator cycle sequencing (ABI PRISM 3100, Applied Biosystems, Foster City, CA) was used to identify and verify the presence of the mutations. The sequencing was performed by the DNA Sequencing Laboratory, Institute of Microbiology, ASCR, Prague.\n(§3) ATP-induced currents were recorded from whole cells clamped to −60 mV using an Axopatch 200B patch-clamp amplifier (Axon Instruments, Union City, CA). The recordings were captured and stored using the Digidata 1322A and pClamp9 software package (Axon Instruments). During the experiments, the cell culture was perfused with a bath solution containing: 142 mM NaCl, 3 mM KCl, 2 mM CaCl2, 1 mM MgCl2, 10 mM 4-(2-Hydroxyethyl)piperazine-1-ethanesulfonic acid (HEPES) and 10 mM D-glucose, adjusted to pH 7.3 with 1 M NaOH. The patch electrodes were filled with a solution containing: 154 mM CsCl, 11 mM EGTA and 10 mM HEPES, adjusted to pH 7.2 with 1.6 M CsOH. The whole-cell configuration was used to abolish the influence of natively present metabotropic receptors for ATP and we used intracellular cesium to block any kind of possible background potassium conductance. Potency of ATP was measured based on the activation of naïve (not previously stimulated) receptors using a short (2–5 s) application of various concentrations of ATP. The results are expressed as molar concentration of ATP required to produce 50% of the maximal response (EC50). One or two responses were recorded from one cell, if not otherwise stated, and responses from different cells were pooled. The maximum current amplitude (Imax) was measured in response to application of supramaximal concentrations (100–1000 µM) of ATP. Responsiveness to P2XR agonists 2-MeS-ATP, ATPγS, BzATP, and α,β-meATP, all applied in 100 µM concentration, was expressed as percentage of response in comparison to 100 µM ATP treatment for selected mutants. In all mutants, the whole cell currents were also measured in the presence of 3 µM IVM, which was dissolved in dimethyl sulfoxide, stored in stock solutions at 10 mM, and diluted to required concentrations in bath solution in the day of experiment. The control and drug containing solutions were applied via a rapid (exchange time 30–40 ms) perfusion system (RSC-200, BIOLOGIC, Claix, France). All other chemicals are from Sigma-Aldrich. […]"}, "[2]": {"target": "T2, rP2X4R I205A mutant (Rattus norvegicus, UniProt P51577, I205A)", "T2 construct": "expressed in transfected cells; host or cells: HEK293T", "T2 sequence (P51577 1-388 I205A)": "T1 sequence (P51577 1-388 L214A) with I205A, A214L", "method": "as §1, §2, §3"}, "[3]": {"target": "T3, rP2X4R Y292A mutant (Rattus norvegicus, UniProt P51577, Y292A)", "T3 construct": "expressed in transfected cells; host or cells: HEK293T", "T3 sequence (P51577 1-388 Y292A)": "T1 sequence (P51577 1-388 L214A) with A214L, Y292A", "method": "as §1, §2, §3"}, "[4]": {"conditions": "3 µM IVM 4-6 min vs IVM-untreated"}, "[5]": {"conditions": "100 µM ATP 60 s, biexponential fit"}, "[6]": {"conditions": "contribution of τdes2, 100 µM ATP 60 s"}, "[7]": {"conditions": "decay after removal of 1 or 3 µM ATP, 3 µM IVM"}, "[8]": {"conditions": "naïve receptors, 2–5 s application"}}, "note": "Where a chain is given by its changes, count along the chain named.", "data": [{"compound": "2′(3′-O-(4-Benzoylbenzoyl)adenosine 5′-triphosphate [BzATP]", "values": [{"measurement": "relative responsiveness", "setting": "[1]", "value": "5.9±0.5", "unit": "%"}, {"measurement": "relative responsiveness", "setting": "[2]", "value": "4.4±2.6", "unit": "%"}, {"measurement": "relative responsiveness", "setting": "[3]", "value": "28.9±8.2", "unit": "%"}]}, {"compound": "CC[C@H](C)[C@H]1O[C@]2(CC[C@@H]1C)C[C@@H]1C[C@@H](C/C=C(\\C)[C@@H](O[C@H]3C[C@H](OC)[C@@H](O[C@H]4C[C@H](OC)[C@@H](O)[C@H](C)O4)[C@H](C)O3)[C@@H](C)/C=C/C=C3\\CO[C@@H]4[C@H](O)C(C)=C[C@@H](C(=O)O1)[C@]34O)O2", "note": "[IVM, ivermectin]", "values": [{"measurement": "Fold incr. Imax", "setting": "[1]; [4]", "value": "3.7 ± 0.7", "unit": "fold"}, {"measurement": "Fold incr. Imax", "setting": "[2]; [4]", "value": "5.5 ± 0.6", "unit": "fold"}, {"measurement": "Fold incr. Imax", "setting": "[3]; [4]", "value": "2.0 ± 0.3", "unit": "fold"}]}, {"compound": "CSc1nc(N)c2ncn([C@@H]3O[C@H](COP(=O)(O)OP(=O)(O)OP(=O)(O)O)[C@@H](O)[C@H]3O)c2n1", "note": "[2-MeS-ATP, 2-(Methylthio)adenosine 5′-triphosphate]", "values": [{"measurement": "relative responsiveness", "setting": "[1]", "value": "21.4±1.7", "unit": "%"}, {"measurement": "relative responsiveness", "setting": "[2]", "value": "35.6±1.9", "unit": "%"}, {"measurement": "relative responsiveness", "setting": "[3]", "value": "49.8±8.6", "unit": "%"}]}, {"compound": "Nc1ncnc2c1ncn2[C@@H]1O[C@H](CO[P@](=O)(O)O[P@](=O)(O)O[P@@](=O)(O)S)[C@@H](O)[C@H]1O", "note": "[ATPγS, Adenosine 5′-(γ-thio)triphosphate]", "values": [{"measurement": "relative responsiveness", "setting": "[1]", "value": "7.9±2.0", "unit": "%"}, {"measurement": "relative responsiveness", "setting": "[2]", "value": "11.3±2.2", "unit": "%"}, {"measurement": "relative responsiveness", "setting": "[3]", "value": "42.3±7.0", "unit": "%"}]}, {"compound": "Nc1ncnc2c1ncn2[C@@H]1O[C@H](COP(=O)(O)OP(=O)(O)OP(=O)(O)O)[C@@H](O)[C@H]1O", "note": "[ATP]", "values": [{"measurement": "EC50 rightward shift compared to WT", "setting": "[1]", "value": "approximately 10 fold"}, {"measurement": "τdes1", "setting": "[1]; [5]", "value": "1.9 ± 0.4", "unit": "s"}, {"measurement": "τdes2", "setting": "[1]; [5]", "value": "12.6 ± 1.9", "unit": "s"}, {"measurement": "Imax", "setting": "[1]; 100–1000 µM ATP", "value": "1.0 ± 0.2", "unit": "nA"}, {"measurement": "Imax+IVM", "setting": "[1]; ATP after 3 µM IVM 4-6 min", "value": "3.9 ± 0.8", "unit": "nA"}, {"measurement": "A2 /(A1+A2)", "setting": "[1]; [6]", "value": "62 ± 3", "unit": "%"}, {"measurement": "τoff +IVM", "setting": "[1]; [7]", "value": "3.4 ± 0.6", "unit": "s"}, {"measurement": "EC50", "setting": "[1]; [8]", "value": "25 ± 5.7", "unit": "µM"}, {"measurement": "τdes", "setting": "[1]; weighted, 100 µM ATP 60 s", "value": "8.8 ± 1.3", "unit": "s"}, {"measurement": "EC50 rightward shift compared to WT", "setting": "[2]", "value": "approximately 10 fold"}, {"measurement": "τdes1", "setting": "[2]; [5]", "value": "1.5 ± 0.7", "unit": "s"}, {"measurement": "τdes2", "setting": "[2]; [5]", "value": "8.1 ± 1.3", "unit": "s"}, {"measurement": "Imax", "setting": "[2]; 100–1000 µM ATP", "value": "0.6 ± 0.13", "unit": "nA"}, {"measurement": "Imax+IVM", "setting": "[2]; ATP after 3 µM IVM 4-6 min", "value": "4.3 ± 0.4", "unit": "nA"}, {"measurement": "A2 /(A1+A2)", "setting": "[2]; [6]", "value": "51 ± 4", "unit": "%"}, {"measurement": "τoff +IVM", "setting": "[2]; [7]", "value": "4.1 ± 0.9", "unit": "s"}, {"measurement": "EC50", "setting": "[2]; [8]", "value": "26 ± 7.7", "unit": "µM"}, {"measurement": "τdes", "setting": "[2]; weighted, 100 µM ATP 60 s", "value": "4.9 ± 0.9. s"}, {"measurement": "τdes1", "setting": "[3]; [5]", "value": "1.9 ± 0.2", "unit": "s"}, {"measurement": "τdes2", "setting": "[3]; [5]", "value": "15.8 ± 0.2", "unit": "s"}, {"measurement": "Imax", "setting": "[3]; 100–1000 µM ATP", "value": "1.9 ± 0.3", "unit": "nA"}, {"measurement": "Imax+IVM", "setting": "[3]; ATP after 3 µM IVM 4-6 min", "value": "4.3 ± 0.3", "unit": "nA"}, {"measurement": "A2 /(A1+A2)", "setting": "[3]; [6]", "value": "57 ± 3", "unit": "%"}, {"measurement": "τoff +IVM", "setting": "[3]; [7]", "value": "11 ± 1.2", "unit": "s"}, {"measurement": "EC50", "setting": "[3]; [8]", "value": "7.2 ± 1.9", "unit": "µM"}, {"measurement": "τdes", "setting": "[3]; weighted, 100 µM ATP 60 s", "value": "10 ± 1.5", "unit": "s"}]}, {"compound": "Nc1ncnc2c1ncn2C1OC(COP(=O)(O)CP(=O)(O)OP(=O)(O)O)C(O)C1O", "note": "(stereo not drawn) [α,β-meATP, α,β-methyleneadenosine 5′-triphosphate]", "values": [{"measurement": "relative responsiveness", "setting": "[1]", "value": "6.5±1.5", "unit": "%"}, {"measurement": "relative responsiveness", "setting": "[2]", "value": "4.6±1.0", "unit": "%"}, {"measurement": "relative responsiveness", "setting": "[3]", "value": "16.2±4.4", "unit": "%"}]}]}
